Experiments:
Assay in all cases: relative viability (nuclei count vs DMSO), 5 days (fraction); higher = more cells survive
[1] = compound: Cn1cncc1[C@@](N)(c1ccc(Cl)cc1)c1ccc2c(c1)c(-c1cccc(Cl)c1)cc(=O)n2C [Tipifarnib] + Nc1ncn([C@H]2C[C@H](O)[C@@H](CO)O2)c(=O)n1 [Decitabine] (partner 2 µM)
Procedure, shortened: (§1)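 Medians of duplicate plates are given as relative viability. That measure is the nuclei count in treated wells divided by the count in vehicle wells. Counts were taken on 4× images of lung cancer cell lines in 1536-well plates, 5 days after pin-tool dosing the day after seeding with one drug alone or a fixed anchor-drug dose plus five library-drug doses (not always all listed) in √10 steps.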

[2] = compound: Cn1cncc1[C@@](N)(c1ccc(Cl)cc1)c1ccc2c(c1)c(-c1cccc(Cl)c1)cc(=O)n2C [Tipifarnib] + O=C(c1cc(Cc2n[nH]c(=O)c3ccccc23)ccc1F)N1CCN(C(=O)C2CC2)CC1 [Olaparib] (partner 8 µM)
Procedure, shortened: as §1

[3] = compound: Cn1cncc1[C@@](N)(c1ccc(Cl)cc1)c1ccc2c(c1)c(-c1cccc(Cl)c1)cc(=O)n2C [Tipifarnib] + CCNC(=O)c1noc(-c2cc(C(C)C)c(O)cc2O)c1-c1ccc(CN2CCOCC2)cc1 [Luminespib] (partner 0.01 µM)
Procedure, shortened: as §1

[4] = compound: Cn1cncc1[C@@](N)(c1ccc(Cl)cc1)c1ccc2c(c1)c(-c1cccc(Cl)c1)cc(=O)n2C [Tipifarnib] + CS(=O)(=O)CCNCc1ccc(-c2ccc3ncnc(Nc4ccc(OCc5cccc(F)c5)c(Cl)c4)c3c2)o1 [Lapatinib] (partner 2 µM)
Procedure, shortened: as §1

Cell Line: H3255
- relative viability ([1]; first compound 0.01 µM): 0.685
- relative viability ([1]; first compound 0.03162 µM): 0.556
- relative viability ([1]; first compound 0.1 µM): 0.605
- relative viability ([1]; first compound 0.3162 µM): 0.48
- relative viability ([1]; first compound 1 µM): 0.492
- relative viability ([2]; first compound 0.01 µM): 0.606
- relative viability ([2]; first compound 0.03162 µM): 0.509
- relative viability ([2]; first compound 0.1 µM): 0.457
- relative viability ([2]; first compound 0.3162 µM): 0.397
- relative viability ([2]; first compound 1 µM): 0.402
- relative viability ([3]; first compound 0.01 µM): 1.13
- relative viability ([3]; first compound 0.03162 µM): 0.873
- relative viability ([3]; first compound 0.1 µM): 0.846
- relative viability ([3]; first compound 0.3162 µM): 0.654
- relative viability ([3]; first compound 1 µM): 0.53
- relative viability ([4]; first compound 0.01 µM): 0.249
- relative viability ([4]; first compound 0.03162 µM): 0.3
- relative viability ([4]; first compound 0.1 µM): 0.27
- relative viability ([4]; first compound 0.3162 µM): 0.232
- relative viability ([4]; first compound 1 µM): 0.214

Cell Line: LXF-289
- relative viability ([1]; first compound 0.01 µM): 0.415
- relative viability ([1]; first compound 0.03162 µM): 0.391
- relative viability ([1]; first compound 0.1 µM): 0.429
- relative viability ([1]; first compound 0.3162 µM): 0.348
- relative viability ([1]; first compound 1 µM): 0.377
- relative viability ([2]; first compound 0.01 µM): 1.12
- relative viability ([2]; first compound 0.03162 µM): 1.02
- relative viability ([2]; first compound 0.1 µM): 0.989
- relative viability ([2]; first compound 0.3162 µM): 0.805
- relative viability ([2]; first compound 1 µM): 0.91
- relative viability ([3]; first compound 0.01 µM): 0.651
- relative viability ([3]; first compound 0.03162 µM): 0.68
- relative viability ([3]; first compound 0.1 µM): 0.701
- relative viability ([3]; first compound 0.3162 µM): 0.554
- relative viability ([3]; first compound 1 µM): 0.444
- relative viability ([4]; first compound 0.01 µM): 0.88
- relative viability ([4]; first compound 0.03162 µM): 0.865
- relative viability ([4]; first compound 0.1 µM): 0.855
- relative viability ([4]; first compound 0.3162 µM): 0.787
- relative viability ([4]; first compound 1 µM): 0.708

Cell Line: UMC-11
- relative viability ([1]; first compound 0.01 µM): 0.569
- relative viability ([1]; first compound 0.03162 µM): 0.53
- relative viability ([1]; first compound 0.1 µM): 0.524
- relative viability ([1]; first compound 0.3162 µM): 0.322
- relative viability ([1]; first compound 1 µM): 0.405
- relative viability ([2]; first compound 0.01 µM): 0.432
- relative viability ([2]; first compound 0.03162 µM): 0.356
- relative viability ([2]; first compound 0.1 µM): 0.357
- relative viability ([2]; first compound 0.3162 µM): 0.346
- relative viability ([2]; first compound 1 µM): 0.339
- relative viability ([3]; first compound 0.01 µM): 0.99
- relative viability ([3]; first compound 0.03162 µM): 0.845
- relative viability ([3]; first compound 0.1 µM): 0.711
- relative viability ([3]; first compound 0.3162 µM): 0.665
- relative viability ([3]; first compound 1 µM): 0.621
- relative viability ([4]; first compound 0.01 µM): 0.84
- relative viability ([4]; first compound 0.03162 µM): 0.605
- relative viability ([4]; first compound 0.1 µM): 0.595
- relative viability ([4]; first compound 0.3162 µM): 0.475
- relative viability ([4]; first compound 1 µM): 0.281

Cell Line: LC-2-ad
- relative viability ([1]; first compound 0.01 µM): 0.871
- relative viability ([1]; first compound 0.03162 µM): 0.913
- relative viability ([1]; first compound 0.1 µM): 0.77
- relative viability ([1]; first compound 0.3162 µM): 0.802
- relative viability ([1]; first compound 1 µM): 0.641
- relative viability ([2]; first compound 0.01 µM): 0.69
- relative viability ([2]; first compound 0.03162 µM): 0.667
- relative viability ([2]; first compound 0.1 µM): 0.666
- relative viability ([2]; first compound 0.3162 µM): 0.533
- relative viability ([2]; first compound 1 µM): 0.515
- relative viability ([3]; first compound 0.01 µM): 1.02
- relative viability ([3]; first compound 0.03162 µM): 0.897
- relative viability ([3]; first compound 0.1 µM): 0.767
- relative viability ([3]; first compound 0.3162 µM): 0.753
- relative viability ([3]; first compound 1 µM): 0.717
- relative viability ([4]; first compound 0.01 µM): 0.843
- relative viability ([4]; first compound 0.03162 µM): 0.592
- relative viability ([4]; first compound 0.1 µM): 0.367
- relative viability ([4]; first compound 0.3162 µM): 0.436
- relative viability ([4]; first compound 1 µM): 0.178

Cell Line: SK-MES-1
- relative viability ([1]; first compound 0.01 µM): 0.465
- relative viability ([1]; first compound 0.03162 µM): 0.336
- relative viability ([1]; first compound 0.1 µM): 0.35
- relative viability ([1]; first compound 0.3162 µM): 0.421
- relative viability ([1]; first compound 1 µM): 0.33
- relative viability ([2]; first compound 0.01 µM): 0.733
- relative viability ([2]; first compound 0.03162 µM): 0.612
- relative viability ([2]; first compound 0.1 µM): 0.783
- relative viability ([2]; first compound 0.3162 µM): 0.622
- relative viability ([2]; first compound 1 µM): 0.459
- relative viability ([3]; first compound 0.01 µM): 0.679
- relative viability ([3]; first compound 0.03162 µM): 0.606
- relative viability ([3]; first compound 0.1 µM): 0.675
- relative viability ([3]; first compound 0.3162 µM): 0.373
- relative viability ([3]; first compound 1 µM): 0.348
- relative viability ([4]; first compound 0.01 µM): 0.466
- relative viability ([4]; first compound 0.03162 µM): 0.455
- relative viability ([4]; first compound 0.1 µM): 0.481
- relative viability ([4]; first compound 0.3162 µM): 0.411
- relative viability ([4]; first compound 1 µM): 0.386

Cell Line: A-427
- relative viability ([1]; first compound 0.01 µM): 0.621
- relative viability ([1]; first compound 0.03162 µM): 0.548
- relative viability ([1]; first compound 0.1 µM): 0.574
- relative viability ([1]; first compound 0.3162 µM): 0.478
- relative viability ([1]; first compound 1 µM): 0.449
- relative viability ([2]; first compound 0.01 µM): 0.834
- relative viability ([2]; first compound 0.03162 µM): 0.696
- relative viability ([2]; first compound 0.1 µM): 0.697
- relative viability ([2]; first compound 0.3162 µM): 0.694
- relative viability ([2]; first compound 1 µM): 0.727
- relative viability ([3]; first compound 0.01 µM): 0.828
- relative viability ([3]; first compound 0.03162 µM): 0.877
- relative viability ([3]; first compound 0.1 µM): 0.849
- relative viability ([3]; first compound 0.3162 µM): 0.691
- relative viability ([3]; first compound 1 µM): 0.548
- relative viability ([4]; first compound 0.01 µM): 1
- relative viability ([4]; first compound 0.03162 µM): 1.13
- relative viability ([4]; first compound 0.1 µM): 1.08
- relative viability ([4]; first compound 0.3162 µM): 0.893
- relative viability ([4]; first compound 1 µM): 0.46

Cell Line: NCI-H322M
- relative viability ([1]; first compound 0.01 µM): 0.713
- relative viability ([1]; first compound 0.03162 µM): 0.751
- relative viability ([1]; first compound 0.1 µM): 0.631
- relative viability ([1]; first compound 0.3162 µM): 0.701
- relative viability ([1]; first compound 1 µM): 0.666
- relative viability ([2]; first compound 0.01 µM): 0.825
- relative viability ([2]; first compound 0.03162 µM): 0.772
- relative viability ([2]; first compound 0.1 µM): 0.884
- relative viability ([2]; first compound 0.3162 µM): 0.774
- relative viability ([2]; first compound 1 µM): 0.91
- relative viability ([3]; first compound 0.01 µM): 0.854
- relative viability ([3]; first compound 0.03162 µM): 0.85
- relative viability ([3]; first compound 0.1 µM): 0.676
- relative viability ([3]; first compound 0.3162 µM): 0.665
- relative viability ([3]; first compound 1 µM): 0.554
- relative viability ([4]; first compound 0.01 µM): 0.637
- relative viability ([4]; first compound 0.03162 µM): 0.662
- relative viability ([4]; first compound 0.1 µM): 0.622
- relative viability ([4]; first compound 0.3162 µM): 0.688
- relative viability ([4]; first compound 1 µM): 0.505

Cell Line: NCI-H1975
- relative viability ([1]; first compound 0.01 µM): 0.425
- relative viability ([1]; first compound 0.03162 µM): 0.419
- relative viability ([1]; first compound 0.1 µM): 0.37
- relative viability ([1]; first compound 0.3162 µM): 0.317
- relative viability ([1]; first compound 1 µM): 0.317
- relative viability ([2]; first compound 0.01 µM): 0.863
- relative viability ([2]; first compound 0.03162 µM): 0.764
- relative viability ([2]; first compound 0.1 µM): 0.782
- relative viability ([2]; first compound 0.3162 µM): 0.559
- relative viability ([2]; first compound 1 µM): 0.505
- relative viability ([3]; first compound 0.01 µM): 0.235
- relative viability ([3]; first compound 0.03162 µM): 0.282
- relative viability ([3]; first compound 0.1 µM): 0.163
- relative viability ([3]; first compound 0.3162 µM): 0.172
- relative viability ([3]; first compound 1 µM): 0.106
- relative viability ([4]; first compound 0.01 µM): 1.01
- relative viability ([4]; first compound 0.03162 µM): 0.933
- relative viability ([4]; first compound 0.1 µM): 0.933
- relative viability ([4]; first compound 0.3162 µM): 0.631
- relative viability ([4]; first compound 1 µM): 0.65
